The source of these data is ChEMBL document CHEMBL1201862, “PubChem BioAssay data set” (2004).

Activity calls are given as the source filed them.

Test [1] concerns HeLa. Nature of the test: Cytotoxicity counterscreen assay for transcriptional activators of heat shock protein 70 (Hsp70). [Related pubchem assays: 1203, 1252 ]. Particulars: Homo sapiens. Format: functional. Background: Counterscreens check selectivity or assay interference.
Test [2] is described as follows: inhibitors of intracellular T. cruzi replication, confirmation, NIH3T3 host cells, beta-gal luminescence (AID 2044).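 Note: intracellular parasites grown in NIH/3T3 mouse fibroblasts as host cells; luminescent beta-galactosidase reporter signal from transgenic T. cruzi replicating inside host cells; inhibitors lower the luminescence signal.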 It counts as functional, cell-based.
Test [3] is described as follows: cytotoxicity toward NIH3T3 fibroblasts, dose response, counter-screen, cell-based, ATP luminescence, mouse fibroblasts (AID 2010).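 Note: cells exposed to compound for about 90 hours before reading.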 Format: functional.
The target of test [4] is T1, Sphingosine 1-phosphate receptor 4 (Homo sapiens, UniProt O95977).
T1 sequence (O95977 whole entry): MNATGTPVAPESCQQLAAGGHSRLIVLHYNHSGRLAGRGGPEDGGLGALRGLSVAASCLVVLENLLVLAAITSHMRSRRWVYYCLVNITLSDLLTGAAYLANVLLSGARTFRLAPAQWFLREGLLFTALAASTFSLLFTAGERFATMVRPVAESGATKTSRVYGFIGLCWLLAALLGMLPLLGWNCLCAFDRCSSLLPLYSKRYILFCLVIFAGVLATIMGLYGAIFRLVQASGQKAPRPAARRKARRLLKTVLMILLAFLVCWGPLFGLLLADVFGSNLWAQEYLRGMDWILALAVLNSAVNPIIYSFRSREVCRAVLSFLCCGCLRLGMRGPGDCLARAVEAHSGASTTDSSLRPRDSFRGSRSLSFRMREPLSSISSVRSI
Description: Fluorescence dose response cell-based high throughput screening assay for antagonists of the Sphingosine 1-Phosphate Receptor 4 (S1P4). [Related pubchem assays: 1524 (Confirmation in triplicates.), 1510 (Primary screen.)]. It counts as functional.

In test [5] the target is Sphingosine 1-phosphate receptor 1 (Homo sapiens, UniProt P21453). Format: functional.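 Note: Tango beta-arrestin reporter U2OS cells stimulated with S1P near its EC80; inhibitor potency meaning antagonism of receptor activation by the natural agonist.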
Chain of Sphingosine 1-phosphate receptor 1 (P21453 whole entry): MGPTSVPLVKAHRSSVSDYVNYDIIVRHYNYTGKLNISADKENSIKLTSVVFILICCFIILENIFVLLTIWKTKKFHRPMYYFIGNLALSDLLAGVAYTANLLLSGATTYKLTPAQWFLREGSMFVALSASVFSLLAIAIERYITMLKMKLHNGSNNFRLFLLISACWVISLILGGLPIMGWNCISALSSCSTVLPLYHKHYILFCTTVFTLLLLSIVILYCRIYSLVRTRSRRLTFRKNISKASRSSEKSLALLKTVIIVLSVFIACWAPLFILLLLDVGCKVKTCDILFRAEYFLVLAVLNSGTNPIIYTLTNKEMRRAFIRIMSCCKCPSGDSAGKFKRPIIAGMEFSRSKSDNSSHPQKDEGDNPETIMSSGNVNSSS
A short description of test [6]: THP-1 cell cytotoxicity, dose response, cytotoxicity control for non-replicating M. tuberculosis project (AID 489025). Format: functional.
Test [7] can be described thus: HepG2 cell cytotoxicity, dose response, cytotoxicity control for non-replicating M. tuberculosis project (AID 489018). It counts as functional. Particulars: Mycobacterium tuberculosis.
A short description of test [8]: Vero E6 cell cytotoxicity, dose response, cytotoxicity control for non-replicating M. tuberculosis project, secondary assay (AID 492998). It counts as functional, VeroE6. The note with it: Vero C1008.
Test [9] can be described thus: cells. It counts as functional.
Test [10] has as its system CHO. Description: cytotoxicity in TLR9-MyD88 CHO cells, dose response, cytotoxicity control for TLR9-MyD88 binding inhibitor project, cell-based, luminescence (AID 588339).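 Note: CHO cells stably coexpressing TLR9 and MyD88 fusions from primary screen; compound exposure lasted 48 hours before viability readout.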 It counts as functional, hamster. The note with it: Cricetulus griseus.
Test [11] has as its target T2, Replicative DNA helicase DnaB (Mycobacterium tuberculosis, UniProt P9WMR3).
T2 sequence (P9WMR3 whole entry): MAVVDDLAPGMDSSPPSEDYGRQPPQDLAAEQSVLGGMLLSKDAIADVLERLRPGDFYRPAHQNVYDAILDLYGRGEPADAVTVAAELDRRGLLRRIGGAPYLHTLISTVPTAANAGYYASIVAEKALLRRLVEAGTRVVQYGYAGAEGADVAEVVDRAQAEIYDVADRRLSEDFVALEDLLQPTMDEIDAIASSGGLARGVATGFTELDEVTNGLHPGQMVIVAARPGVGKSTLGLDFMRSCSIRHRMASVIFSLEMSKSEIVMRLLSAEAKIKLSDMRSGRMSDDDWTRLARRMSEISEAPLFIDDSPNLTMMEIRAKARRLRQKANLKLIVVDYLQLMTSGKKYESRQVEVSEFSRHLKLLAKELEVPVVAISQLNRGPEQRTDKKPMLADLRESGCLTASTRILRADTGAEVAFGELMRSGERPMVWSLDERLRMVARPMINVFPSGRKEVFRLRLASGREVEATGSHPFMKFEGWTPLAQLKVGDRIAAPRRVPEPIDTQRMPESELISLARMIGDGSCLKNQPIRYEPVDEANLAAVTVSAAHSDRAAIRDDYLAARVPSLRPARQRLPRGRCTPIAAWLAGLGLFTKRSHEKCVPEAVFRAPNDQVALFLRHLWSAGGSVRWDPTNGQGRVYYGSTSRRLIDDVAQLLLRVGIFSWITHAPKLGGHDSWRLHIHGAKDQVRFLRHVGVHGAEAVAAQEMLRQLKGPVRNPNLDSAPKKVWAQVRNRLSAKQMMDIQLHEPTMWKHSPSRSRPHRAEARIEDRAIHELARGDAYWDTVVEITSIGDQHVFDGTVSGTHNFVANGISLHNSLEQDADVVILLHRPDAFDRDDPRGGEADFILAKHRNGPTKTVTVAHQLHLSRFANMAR
Description: DnaB intein splicing inhibitors, dose response, biochemical, cell-free fluorescence (AID 449749). It counts as functional.

Test [12] concerns the target Heat shock protein HSP 90-alpha (Homo sapiens, UniProt P07900). It counts as functional, organism-based.
Test [13] concerns the target T3, Protein RecA (Mycobacterium tuberculosis, UniProt P9WHJ3).
T3 sequence (P9WHJ3 whole entry): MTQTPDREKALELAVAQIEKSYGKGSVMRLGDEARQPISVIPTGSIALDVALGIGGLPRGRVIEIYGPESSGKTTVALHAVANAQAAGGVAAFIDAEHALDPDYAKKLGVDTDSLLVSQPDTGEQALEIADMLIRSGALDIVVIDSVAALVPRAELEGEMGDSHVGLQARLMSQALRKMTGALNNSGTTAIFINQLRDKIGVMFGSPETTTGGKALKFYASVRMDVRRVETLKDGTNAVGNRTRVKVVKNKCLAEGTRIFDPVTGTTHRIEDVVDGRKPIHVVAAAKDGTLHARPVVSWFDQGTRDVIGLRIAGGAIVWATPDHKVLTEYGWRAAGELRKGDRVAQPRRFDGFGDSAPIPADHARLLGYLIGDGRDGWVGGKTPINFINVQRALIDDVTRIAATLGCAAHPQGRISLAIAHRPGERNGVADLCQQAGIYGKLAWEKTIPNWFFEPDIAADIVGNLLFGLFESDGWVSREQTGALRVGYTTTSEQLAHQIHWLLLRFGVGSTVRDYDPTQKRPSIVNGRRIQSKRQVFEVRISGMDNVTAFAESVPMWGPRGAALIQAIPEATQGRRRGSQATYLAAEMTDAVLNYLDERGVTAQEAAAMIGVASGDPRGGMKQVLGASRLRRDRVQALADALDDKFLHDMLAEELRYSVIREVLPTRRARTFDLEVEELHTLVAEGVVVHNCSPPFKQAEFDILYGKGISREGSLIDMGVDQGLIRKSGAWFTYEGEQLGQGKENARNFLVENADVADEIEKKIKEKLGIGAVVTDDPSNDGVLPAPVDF
Description: Fluorescence Cell-Free Homogeneous Dose Retest to Identify Inhibitors of RecA-Intein Splicing Activity. [Related pubchem assays (depositor defined):AID2097, AID2223, AID489010, AID492950]. It counts as functional.

Test [14] deals with Beta Lactamase (Pseudomonas aeruginosa, UniProt Q932Y6). Description: beta-lactamase reporter inhibitor potency, dose response, artefact control for TLR9-MyD88 binding inhibitor project, BLA reporter cells, FRET fluorescence (AID 588341).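 Note: cell based assay in CHO-K1 cells stably expressing beta-lactamase.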 It counts as cell-based.
Chain of Beta Lactamase (Q932Y6 whole entry): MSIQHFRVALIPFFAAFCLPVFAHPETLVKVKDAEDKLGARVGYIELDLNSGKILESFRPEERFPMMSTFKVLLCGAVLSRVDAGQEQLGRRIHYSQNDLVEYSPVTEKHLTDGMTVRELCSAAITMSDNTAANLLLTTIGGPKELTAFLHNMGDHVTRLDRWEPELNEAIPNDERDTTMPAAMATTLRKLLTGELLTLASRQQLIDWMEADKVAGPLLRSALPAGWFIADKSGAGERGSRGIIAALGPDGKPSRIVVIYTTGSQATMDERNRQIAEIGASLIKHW
Test [15] concerns INS1. Nature of the test: beta cell apoptosis inhibitors, cytokine rescue, dose response, luminescence, retest (AID 449756).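 Note: cell death triggered by IL-1 beta plus TNF-alpha plus IFN-gamma mixture; protective hits raise ATP signal compared with cytokine alone wells.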 Format: functional, cell-based. Particulars: Rattus norvegicus.
Test [16] deals with HEK293. Nature of the test: Fluorescence-based counterscreen for potentiators or agonists of NPY-Y2: cell-based high-throughput dose response assay to identify inhibitors of cyclic nucleotide gated ion channel (CNGC) activity. In this assay, the parental HEK293 cell line transfected with a cyclic-nucleotide gated ion channel (CNGC)-based cAMP sensor is used to measure inhibition of isoproterenol-induced CNGC activity by test compound. Format: functional. Particulars: Homo sapiens.

Test [17] deals with Neuropeptide Y receptor type 2 (Homo sapiens, UniProt P49146). Description: Fluorescence-based cell-based high-throughput dose response assay for agonists of NPY-Y2. [Related pubchem assays: 1703 (Screening assay (CNGC inhibitors).), 1359 (Screening assay (NPY-Y2 potentiators or agonists).), 1304 (Screening assay (NPY-Y1 potentiators or agonists).), 1710 (Screening assay (NPY-Y2 agonists).), 1791 (Summary AID.)]. It counts as functional.
Chain of Neuropeptide Y receptor type 2 (P49146 whole entry): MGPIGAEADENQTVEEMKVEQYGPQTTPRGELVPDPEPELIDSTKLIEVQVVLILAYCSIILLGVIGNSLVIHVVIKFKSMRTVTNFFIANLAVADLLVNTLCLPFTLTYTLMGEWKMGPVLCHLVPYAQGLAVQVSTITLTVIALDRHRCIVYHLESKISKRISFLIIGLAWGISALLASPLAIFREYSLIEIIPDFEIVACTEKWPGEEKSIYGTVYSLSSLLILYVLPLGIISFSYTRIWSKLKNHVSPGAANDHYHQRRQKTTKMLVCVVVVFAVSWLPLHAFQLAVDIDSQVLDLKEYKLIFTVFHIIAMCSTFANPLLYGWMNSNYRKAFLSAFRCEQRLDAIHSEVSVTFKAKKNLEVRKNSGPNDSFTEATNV

In test [18] the target is Galanin receptor type 2 (Homo sapiens, UniProt O43603). Nature of the test: Dose Response cell-based high-throughput screening assay to identify antagonists of galanin receptor 2 (GALR2). [Related pubchem assays: 828, 866 ]. It counts as functional.
Chain of Galanin receptor type 2 (O43603 whole entry): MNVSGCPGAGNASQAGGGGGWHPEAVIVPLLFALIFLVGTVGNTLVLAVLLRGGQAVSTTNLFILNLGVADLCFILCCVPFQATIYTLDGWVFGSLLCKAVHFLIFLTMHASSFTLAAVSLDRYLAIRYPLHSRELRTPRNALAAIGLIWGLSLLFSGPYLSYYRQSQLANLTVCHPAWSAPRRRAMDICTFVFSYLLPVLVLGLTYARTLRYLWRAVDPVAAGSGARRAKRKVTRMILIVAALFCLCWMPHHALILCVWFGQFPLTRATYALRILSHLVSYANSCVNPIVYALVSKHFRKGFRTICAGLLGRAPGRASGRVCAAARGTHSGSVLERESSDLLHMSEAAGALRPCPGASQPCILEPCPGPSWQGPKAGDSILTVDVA
Test [19] deals with Neuropeptide Y receptor type 1 (Homo sapiens, UniProt P25929). Description: Fluorescence-based counterscreen for agonists of NPY-Y2: cell-based high-throughput dose response assay for agonists of NPY-Y1. It counts as functional.
Chain of Neuropeptide Y receptor type 1 (P25929 whole entry): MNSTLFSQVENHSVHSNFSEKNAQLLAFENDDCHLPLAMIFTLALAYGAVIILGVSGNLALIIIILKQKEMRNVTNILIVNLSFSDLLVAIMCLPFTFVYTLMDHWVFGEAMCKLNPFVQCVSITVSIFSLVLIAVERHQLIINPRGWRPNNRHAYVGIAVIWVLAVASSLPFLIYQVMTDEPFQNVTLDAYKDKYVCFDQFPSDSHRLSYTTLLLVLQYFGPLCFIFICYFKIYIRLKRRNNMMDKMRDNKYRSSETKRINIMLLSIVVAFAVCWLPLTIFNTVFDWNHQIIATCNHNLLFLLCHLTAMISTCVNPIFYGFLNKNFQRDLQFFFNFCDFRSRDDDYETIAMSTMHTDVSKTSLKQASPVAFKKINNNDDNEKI
The nature of test [20]: miR-122 activators in hepatoma reporter cells, dose response, cell-based, Huh7 psiCHECK-miR122, Renilla luciferase, cherry-picked (AID 651956).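 Note: huh7 hepatoma cells stably carrying a psiCHECK-2 miR-122 sensor plasmid; renilla luciferase signal reporting endogenous miR-122 activity after 48 h compound exposure.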 Format: functional.
Test [21] can be described thus: off-target signal loss in HeLa-CEM21 co-culture – HeLa F-luc CTL cells, cherry-picked, counter-screen for HIV-1 Env fusion inhibitor project, dose response (AID 652040).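 Note: potency for signal decrease marking cytotoxic or nonspecific inhibition.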 Format: functional, cell-based.
Test [22] can be described thus: inhibitors of clade B AD8 Env fusion, dose response, cell-based, cherry-pick (AID 652062).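 Note: luciferase signal from cell-cell fusion driven by HIV-1 clade B AD8 Env; potency is for inhibitors of fusion seen as a drop in luminescence.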 Format: functional.
Test [23] concerns the target T4, COUP transcription factor 2 (Homo sapiens, UniProt P24468).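 Note: HEK293 cells transiently cotransfected with COUP-TFII expression vector and reporter; luciferase reporter luminescence driven by COUP-TFII from the pX2-168 reporter plasmid.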
T4 sequence (P24468 whole entry): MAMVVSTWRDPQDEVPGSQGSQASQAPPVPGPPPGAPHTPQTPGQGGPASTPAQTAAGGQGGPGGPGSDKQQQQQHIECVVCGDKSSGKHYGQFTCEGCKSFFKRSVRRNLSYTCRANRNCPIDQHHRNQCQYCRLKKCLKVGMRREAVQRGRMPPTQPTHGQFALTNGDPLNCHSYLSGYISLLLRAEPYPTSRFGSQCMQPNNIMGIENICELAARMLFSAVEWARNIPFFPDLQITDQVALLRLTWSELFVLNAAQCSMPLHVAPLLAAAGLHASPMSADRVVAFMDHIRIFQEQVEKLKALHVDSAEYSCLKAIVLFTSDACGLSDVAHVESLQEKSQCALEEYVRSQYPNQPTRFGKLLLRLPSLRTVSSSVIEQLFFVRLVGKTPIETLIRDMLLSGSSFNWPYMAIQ
Description: Luminescence-based cell-based high throughput dose response assay to identify inhibitors of COUP-TFII (NR2F2). It counts as functional.

Test [24] in a line: HEK293T cytotoxicity, dose response, cytotoxicity control for miR-122 modulator project, cell-based, inhibitor set, cherry-pick, set 2 (AID 720697). Format: functional.
A short description of test [25]: HEK293T cytotoxicity, dose response, cytotoxicity control for miR-122 modulator project, cell-based, activator set, cherry-pick (AID 720690).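 Note: HEK293T human cells scored for general mammalian cytotoxicity.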 It counts as functional.
The target of test [26] is Serine/threonine-protein phosphatase PP1-alpha catalytic subunit (Homo sapiens, UniProt P62136). Nature of the test: PP1 phosphatase inhibitors, dose response, biochemical, fluorescence (AID 2403).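 Note: phosphatase turnover of OMFP into fluorescent 3-O-methylfluorescein.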
Chain of Serine/threonine-protein phosphatase PP1-alpha catalytic subunit (P62136 whole entry): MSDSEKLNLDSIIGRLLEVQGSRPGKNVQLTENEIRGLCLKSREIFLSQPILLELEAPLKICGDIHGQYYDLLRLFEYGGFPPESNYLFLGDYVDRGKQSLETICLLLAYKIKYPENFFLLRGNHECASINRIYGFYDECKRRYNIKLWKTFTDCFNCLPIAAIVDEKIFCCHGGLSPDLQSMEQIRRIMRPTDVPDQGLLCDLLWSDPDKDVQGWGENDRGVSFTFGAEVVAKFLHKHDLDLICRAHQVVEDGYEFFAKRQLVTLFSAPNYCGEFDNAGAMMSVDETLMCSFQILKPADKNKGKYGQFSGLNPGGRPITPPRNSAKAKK
The target in test [27] is Serine/threonine-protein phosphatase (Homo sapiens, UniProt Q9BPW0). Nature of the test: Counterscreen for inhibitors of PP1: fluorescence-based biochemical high throughput dose response assay to identify inhibitors of Protein Phosphatase 5 (PP5). [Related pubchem assays: 2034 (Summary (PP5 inhibitors)), 1987 (PP5 inhibitors in singlate), 2235 (PP1 inhibitors in singlate)].
Chain of Serine/threonine-protein phosphatase (Q9BPW0 whole entry): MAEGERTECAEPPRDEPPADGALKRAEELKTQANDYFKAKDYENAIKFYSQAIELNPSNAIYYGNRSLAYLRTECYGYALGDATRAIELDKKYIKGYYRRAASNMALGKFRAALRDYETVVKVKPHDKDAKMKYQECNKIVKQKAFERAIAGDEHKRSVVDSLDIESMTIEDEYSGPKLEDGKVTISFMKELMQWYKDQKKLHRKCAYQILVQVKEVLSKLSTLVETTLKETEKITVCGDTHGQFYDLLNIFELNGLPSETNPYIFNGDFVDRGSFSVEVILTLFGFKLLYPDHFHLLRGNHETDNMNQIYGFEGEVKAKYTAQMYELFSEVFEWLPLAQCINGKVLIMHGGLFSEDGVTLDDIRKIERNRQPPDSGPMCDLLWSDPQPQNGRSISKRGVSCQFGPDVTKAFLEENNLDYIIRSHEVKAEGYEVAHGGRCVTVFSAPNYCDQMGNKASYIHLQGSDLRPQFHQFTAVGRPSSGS

As for `O=C(OCn1ncc(Br)c(Br)c1=O)c1ccccc1Cl`, the CC50 (in general, the concentration that lowers cell viability or growth by half) in [1] was > 1.22 µM (not active); in [6], 5.77 µM (active); in [7], 17.8 µM (active); in [8], 5.45 µM (active). Also, the figures for the EC50 in [2], in test [3] and in test [13] were 2.03 µM (active), 1.88 µM (active) and 0.472 µM (active), respectively. In addition, the IC50 (in general, the concentration needed to halve the response being measured) in test [4] is 1.75 µM (active); in [5], 15.3 µM (not active); in test [9], 3.24 µM (active); in test [10], 1.46 µM (active); in test [14], > 49.8 µM (inactive). Also, the results for the concentration at half-maximal activity (AC50) in [11], in [12] and in test [15] were 2 µM (active), 8.37 µM (active) and 4.76 µM (active), respectively.
In the case of `CC(=O)c1c(C)[nH]c(C(=O)OCCCCN2C(=O)c3ccccc3C2=O)c1C`, the EC50 in test [16], in test [17] and in test [19] was > 35.4 µM (not active) in each case. Further, the values for the IC50 in test [18] and in test [23] were > 42 µM (not active) and 7.55 µM (active), respectively. Further, the AC50 (as a rule, the concentration at which the activity in the assay is half-maximal) in [15] was 6.57 µM (active); in [20], 38.4 µM (active); in test [21], > 70 µM (inactive); in test [22], 6.13 µM (active); in test [24], 7.33 µM (active); in test [25], 12.5 µM (active).
Regarding `COc1ccc(/C=N/Nc2cc(C)nc(-n3nc(C)cc3C)n2)cc1`, the IC50 was 5.81 µM (active) in test [26], > 67 µM (not active) in test [27] and < 0.1 µM (active) in test [9]. The CC50 in test [6] is 6.97 µM (active); in [8], 8.36 µM (active). In [15], the AC50 is 2.42 µM (active).
